# According to patent US12371454B2, “Cyclic peptide compound having Kras inhibitory action” (priority 2019, dated 2025):
# Starred links: 1 amine or outer side, 2 acyl side, 3 side chain; linkers in the order of their positions; H or OH if unused. Positions of bridges follow the written chain, without caps; N, C: chain ends. Non-standard residues stand in square brackets, D forms with d. Residues, ends and D or L forms follow the SMILES beside them. *: point of attachment. hPhe(3-Cl-4-CF3) = N[C@@H](CCc1ccc(C(F)(F)F)c(Cl)c1)C(=O)O; hPhe(3-F,4-CF3) = N[C@@H](CCc1ccc(C(F)(F)F)c(F)c1)C(=O)O; X57 = N#Cc1cc(CC[C@H](N[*:1])C(=O)[*:2])ccc1C(F)(F)F; X85 = O=C([C@@H]1C[C@@H](n2ccnn2)CN1[*:1])[*:2]; 3Oxa8azabicyclo(3.2.1)octane = C1CC2COCC1N2*; NMePhe(4-Me) = CN[C@@H](Cc1ccc(C)cc1)C(=O)O; X72 = COc1ccc(CC[C@H](N[*:1])C(=O)[*:2])cn1; NMePhe(4-F) = CN[C@@H](Cc1ccc(F)cc1)C(=O)O; NMedβ3hAla = C[C@H](CC(=O)[*:2])N(C)[*:1]; NMeAla(cPent) = CN[C@@H](CC1CCCC1)C(=O)O; NMeNva(5,5-F2) = CN[C@@H](CCC(F)F)C(=O)O; NMeGly(cPent) = CN[C@H](C(=O)O)C1CCCC1; Gly(cPent) = N[C@H](C(=O)O)C1CCCC1; NMeCha = CN[C@@H](CC1CCCCC1)C(=O)O; NMeChg = CN[C@H](C(=O)O)C1CCCCC1; NMeD = CN[C@@H](CC(=O)O)C(=O)O; NMeL = CN[C@@H](CC(C)C)C(=O)O; NMeNva = CCC[C@H](NC)C(=O)O; NMeV = CN[C@H](C(=O)O)C(C)C; d(β3hA) = C[C@@H](N)CC(=O)O; NMeS = CN[C@@H](CO)C(=O)O; Morpholide = C1CN(*)CCO1; NMeA = CN[C@@H](C)C(=O)O; Piperidide = C1CCN(*)CC1; Pyrrolidide = C1CCN(*)C1; Thz = O=C(O)[C@@H]1CSCN1; Ac5c = NC1(C(=O)O)CCCC1; Aze = O=C(O)[C@@H]1CCN1; NEtG = CCNCC(=O)O; Sar = CNCC(=O)O; Propyl = CCC*
# Test system: Human pancreatic cancer cell line AsPC-1
# Assay: Measurement of AsPC-1 cell growth inhibition (AsPC-1 CGI)
# Type: cell-based
# Settings: 96 h
# Outline: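 AsPC-1 cells in 15% FBS RPMI-1640 were exposed to test compound for 96 hours at 37° C, with CellTiter-Glo as endpoint.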
row,Compound,IC50 [nM]
1,CC[C@H](C)[C@@H]1NC(=O)[C@H](CC(C)C)N(C)C(=O)C[C@@H](C(=O)N2CCCCC2)N(C)C(=O)[C@H](C2CCCCC2)N(C)C(=O)C2(CCCC2)NC(=O)[C@@H]2CSCN2C(=O)[C@H](CCc2ccc(C(F)(F)F)c(Cl)c2)NC(=O)CN(C)C(=O)[C@H](CC2CCCCC2)N(C)C(=O)CN(C)C(=O)CN(C)C1=O [Compound 1093] ([NMeL]I[Sar][Sar][NMeCha][Sar][hPhe(3-Cl-4-CF3)][Thz][Ac5c][NMeChg][NMeD]-Piperidide; lactam N-11),20 to 50
2,CC[C@H](C)[C@@H]1NC(=O)[C@H](CC(C)C)N(C)C(=O)C[C@@H](C(=O)N2CCCCC2)N(C)C(=O)[C@H](C2CCCC2)N(C)C(=O)C2(CCCC2)NC(=O)[C@@H]2CCCN2C(=O)[C@H](CCc2ccc(C(F)(F)F)c(C#N)c2)NC(=O)CN(C)C(=O)[C@H](CC2CCCCC2)N(C)C(=O)[C@@H]2CCN2C(=O)[C@H](C)N(C)C1=O [Compound 2072] ([NMeL]I[NMeA][Aze][NMeCha][Sar][X57]P[Ac5c][NMeGly(cPent)][NMeD]-Piperidide; lactam N-11),20 to 50
3,CC[C@H](C)[C@@H]1NC(=O)[C@H](CC(C)C)N(C)C(=O)C[C@@H](C(=O)N2CCCC2)NC(=O)[C@H](C2CCCC2)N(C)C(=O)C2(CCCC2)NC(=O)[C@@H]2CCCN2C(=O)[C@H](CCc2ccc(C(F)(F)F)c(Cl)c2)NC(=O)CN(C)C(=O)[C@H](CC2CCCCC2)N(C)C(=O)[C@@H]2CCN2C(=O)[C@H](C)N(C)C1=O [Compound 700] ([NMeL]I[NMeA][Aze][NMeCha][Sar][hPhe(3-Cl-4-CF3)]P[Ac5c][NMeGly(cPent)]D-Pyrrolidide; lactam N-11),100 to 500
4,CC[C@H](C)[C@@H]1NC(=O)[C@H](CC(C)C)N(C)C(=O)C[C@@H](C(=O)N2CCOCC2)N(C)C(=O)[C@H](C2CCCC2)N(C)C(=O)C2(CCCC2)NC(=O)[C@@H]2CCCN2C(=O)[C@H](CCc2ccc(C(F)(F)F)c(Cl)c2)NC(=O)CN(C)C(=O)[C@H](CC2CCCCC2)N(C)C(=O)[C@@H]2CCN2C(=O)[C@H](C)NC1=O [Compound 1137] ([NMeL]IA[Aze][NMeCha][Sar][hPhe(3-Cl-4-CF3)]P[Ac5c][NMeGly(cPent)][NMeD]-Morpholide; lactam N-11),20 to 50
5,CC[C@H](C)[C@@H]1NC(=O)[C@H](CC(C)C)N(C)C(=O)C[C@@H](C(=O)N2CCCCC2)N(C)C(=O)[C@H](C2CCCC2)N(C)C(=O)C2(CCCC2)NC(=O)[C@@H]2CCCN2C(=O)[C@H](CCc2ccc(C(F)(F)F)c(Cl)c2)NC(=O)CN(C)C(=O)[C@H](Cc2ccc(F)cc2)N(C)C(=O)[C@@H]2CCN2C(=O)[C@H](C)N(C)C1=O [Compound 388] ([NMeL]I[NMeA][Aze][NMePhe(4-F)][Sar][hPhe(3-Cl-4-CF3)]P[Ac5c][NMeGly(cPent)][NMeD]-Piperidide; lactam N-11),20 to 50
6,CCC[C@H]1C(=O)N[C@@H]([C@@H](C)CC)C(=O)N(C)[C@@H](C)C(=O)N2CC[C@H]2C(=O)N(C)[C@@H](CC2CCCCC2)C(=O)N(C)CC(=O)N[C@@H](CCc2ccc(C(F)(F)F)c(Cl)c2)C(=O)N2CCC[C@H]2C(=O)NC2(CCCC2)C(=O)N(C)[C@@H](C(C)C)C(=O)N[C@H](C)CC(=O)N1C [Compound 1564] (cyclo([Ac5c][NMeV][d(β3hA)][NMeNva]I[NMeA][Aze][NMeCha][Sar][hPhe(3-Cl-4-CF3)]P)),100 to 500
7,CC[C@H](C)[C@@H]1NC(=O)[C@H](CC(C)C)N(C)C(=O)C[C@@H](C(=O)N2CCOCC2)N(C)C(=O)[C@H](C2CCCC2)N(C)C(=O)C2(CCCC2)NC(=O)[C@@H]2CCCN2C(=O)[C@H](CCc2ccc(C(F)(F)F)c(Cl)c2)NC(=O)CN(CC)C(=O)[C@H](C2CCCC2)N(C)C(=O)[C@@H]2CCN2C(=O)[C@H](C)N(C)C1=O [Compound 1142] ([NMeL]I[NMeA][Aze][NMeGly(cPent)][NEtG][hPhe(3-Cl-4-CF3)]P[Ac5c][NMeGly(cPent)][NMeD]-Morpholide; lactam N-11),20 to 50
8,"CC[C@H](C)[C@@H]1NC(=O)[C@H](CC(C)C)N(C)C(=O)C[C@@H](C(=O)N2CCCCC2)N(C)C(=O)[C@H](C2CCCCC2)N(C)C(=O)C2(CCCC2)NC(=O)[C@H](CCC(F)F)N(C)C(=O)[C@H](CCc2ccc(C(F)(F)F)c(Cl)c2)NC(=O)CN(C)C(=O)[C@H](CC2CCCCC2)N(C)C(=O)CN(C)C(=O)CN(C)C1=O [Compound 523] ([NMeL]I[Sar][Sar][NMeCha][Sar][hPhe(3-Cl-4-CF3)][NMeNva(5,5-F2)][Ac5c][NMeChg][NMeD]-Piperidide; lactam N-11)",100 to 500
9,CCCOC[C@H]1C(=O)N(C)CC(=O)N[C@@H](CCc2ccc(C(F)(F)F)c(Cl)c2)C(=O)N2CCC[C@H]2C(=O)NC2(CCCC2)C(=O)N(C)[C@@H](C2CCCC2)C(=O)N(C)[C@H](C(=O)N2C3CCC2COC3)CC(=O)N(C)[C@@H](CC2CCCC2)C(=O)N[C@@H]([C@@H](C)CC)C(=O)N(C)[C@@H](C)C(=O)N2CC[C@H]2C(=O)N1C [Compound 1251] ([NMeAla(cPent)]I[NMeA][Aze][NMeS](Propyl)[Sar][hPhe(3-Cl-4-CF3)]P[Ac5c][NMeGly(cPent)][NMeD]-{3Oxa8azabicyclo(3.2.1)octane}; lactam N-11),20 to 50
10,CC[C@H](C)[C@@H]1NC(=O)[C@H](C2CCCC2)N(C)C(=O)C[C@@H](C(=O)N2CCCCC2)N(C)C(=O)[C@H](C(C)C)N(C)C(=O)C2(CCCC2)NC(=O)[C@@H]2CCCN2C(=O)[C@H](CCc2ccc(C(F)(F)F)c(Cl)c2)NC(=O)CN(C)C(=O)[C@H](CC2CCCCC2)N(C)C(=O)[C@@H]2CCN2C(=O)[C@H](C)N(C)C1=O [Compound 225] ([NMeGly(cPent)]I[NMeA][Aze][NMeCha][Sar][hPhe(3-Cl-4-CF3)]P[Ac5c][NMeV][NMeD]-Piperidide; lactam N-11),100 to 500
11,CC[C@H](C)[C@@H]1NC(=O)[C@H](CC(C)C)N(C)C(=O)C[C@@H](C(=O)N2CCOCC2)N(C)C(=O)[C@H](C2CCCC2)N(C)C(=O)C2(CCCC2)NC(=O)[C@@H]2CCCN2C(=O)[C@H](CCc2ccc(C(F)(F)F)c(Cl)c2)NC(=O)CN(C)C(=O)[C@H](C2CCCC2)N(C)C(=O)[C@@H]2CCN2C(=O)[C@H](C)NC1=O [Compound 1309] ([NMeL]IA[Aze][NMeGly(cPent)][Sar][hPhe(3-Cl-4-CF3)]P[Ac5c][NMeGly(cPent)][NMeD]-Morpholide; lactam N-11),50 to 100
12,CC[C@H](C)[C@@H]1NC(=O)[C@H](CC(C)C)N(C)C(=O)C[C@@H](C(=O)N2CCCCC2)N(C)C(=O)[C@H](C2CCCC2)N(C)C(=O)C2(CCCC2)NC(=O)[C@@H]2CCCN2C(=O)[C@H](CCc2ccc(OC)nc2)NC(=O)CN(C)C(=O)[C@H](CC2CCCCC2)N(C)C(=O)[C@@H]2CCN2C(=O)[C@H](C)N(C)C1=O [Compound 2084] ([NMeL]I[NMeA][Aze][NMeCha][Sar][X72]P[Ac5c][NMeGly(cPent)][NMeD]-Piperidide; lactam N-11),100 to 500
13,CC[C@H](C)[C@@H]1NC(=O)[C@H](CC2CCCC2)N(C)C(=O)C[C@@H](C(=O)N2CCOCC2)N(C)C(=O)[C@H](C2CCCC2)N(C)C(=O)C2(CCCC2)NC(=O)[C@@H]2CCCN2C(=O)[C@H](CCc2ccc(C(F)(F)F)c(Cl)c2)NC(=O)CN(C)C(=O)[C@H](C2CCCC2)N(C)C(=O)[C@@H]2CCN2C(=O)[C@H](C)NC1=O [Compound 1145] ([NMeAla(cPent)]IA[Aze][NMeGly(cPent)][Sar][hPhe(3-Cl-4-CF3)]P[Ac5c][NMeGly(cPent)][NMeD]-Morpholide; lactam N-11),100 to 500
14,CC[C@H](C)[C@@H]1NC(=O)[C@H](CC(C)C)N(C)C(=O)C[C@@H](C)NC(=O)[C@H](C2CCCC2)NC(=O)C2(CCCC2)NC(=O)[C@@H]2CCCN2C(=O)[C@H](CCc2ccc(C(F)(F)F)c(Cl)c2)NC(=O)CN(C)C(=O)[C@H](Cc2ccc(C)cc2)N(C)C(=O)[C@@H]2CCN2C(=O)[C@H](C)N(C)C1=O [Compound 1213] (cyclo([Ac5c][Gly(cPent)][d(β3hA)][NMeL]I[NMeA][Aze][NMePhe(4-Me)][Sar][hPhe(3-Cl-4-CF3)]P)),100 to 500
15,"CC[C@H](C)[C@@H]1NC(=O)[C@H](CC(C)C)N(C)C(=O)C[C@@H](C(=O)N2CCCCC2)N(C)C(=O)[C@H](C(C)C)N(C)C(=O)C2(CCCC2)NC(=O)[C@@H]2C[C@@H](n3ccnn3)CN2C(=O)[C@H](CCc2ccc(C(F)(F)F)c(Cl)c2)NC(=O)CN(C)C(=O)[C@H](CC2CCCC2)N(C)C(=O)CN(C)C(=O)CN(C)C1=O [Compound 2113, (3S,9S,18S,21S,25S,28S,34S,36R)-3-[2-[3-chloro-4-(trifluoromethyl)phenyl]ethyl]-9-(cyclopentylmethyl)-21-isobutyl-28-isopropyl-7,10,13,16,22,26,29-heptamethyl-18-[(1S)-1-methylpropyl]-25-(piperidine-1-carbonyl)-36-(triazol-1-yl)spiro[1,4,7,10,13,16,19,22,26,29,32-undecazabicyclo[32.3.0]heptatriacontane-31,1′-cyclopentane]-2,5,8,11,14,17,20,23,27,30,33-undecone] ([NMeL]I[Sar][Sar][NMeAla(cPent)][Sar][hPhe(3-Cl-4-CF3)][X85][Ac5c][NMeV][NMeD]-Piperidide; lactam N-11)",> 500
16,"CC[C@H](C)[C@@H]1NC(=O)[C@H](CC(C)C)N(C)C(=O)C[C@@H](C)N(C)C(=O)[C@H](C2CCCC2)N(C)C(=O)C2(CCCC2)NC(=O)[C@@H]2CCCN2C(=O)[C@H](CCc2ccc(C(F)(F)F)c(F)c2)NC(=O)CN(C)C(=O)[C@H](CC2CCCCC2)N(C)C(=O)[C@@H]2CCN2C(=O)[C@H](C)N(C)C1=O [Compound 49] (cyclo([Ac5c][NMeGly(cPent)][NMedβ3hAla][NMeL]I[NMeA][Aze][NMeCha][Sar][hPhe(3-F,4-CF3)]P))",20 to 50
17,CC[C@H](C)[C@@H]1NC(=O)[C@H](CC(C)C)N(C)C(=O)C[C@@H](C(=O)N2CCCCC2)N(C)C(=O)[C@H](C2CCCCC2)N(C)C(=O)C2(CCCC2)NC(=O)[C@H](C)N(C)C(=O)[C@H](CCc2ccc(C(F)(F)F)c(Cl)c2)NC(=O)CN(C)C(=O)[C@H](CC2CCCCC2)N(C)C(=O)CN(C)C(=O)CN(C)C1=O [Compound 294] ([NMeL]I[Sar][Sar][NMeCha][Sar][hPhe(3-Cl-4-CF3)][NMeA][Ac5c][NMeChg][NMeD]-Piperidide; lactam N-11),100 to 500
